Assay results as given in ChEMBL document CHEMBL1909046, “DrugMatrix in vitro pharmacology data”.

What was measured:
[1] = target: 5-hydroxytryptamine receptor 2B (Homo sapiens, UniProt P41595); type: cell membranes, CHO-K1, Membrane; note: in other assays of this panel Not Active means under 50% inhibition at 10 µM
[2] = DRUGMATRIX: beta-Lactamase enzyme inhibition (substrate: Nitrocefin); design: species or system Bacillus cereus; conditions: Not Active = under 50% inhibition at 10 µM
Thromboxane-A synthase = target: T1, Thromboxane-A synthase (Homo sapiens, UniProt P24557); test: biochemical; type: tissue-based, Platelet; conditions: platelet;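 note: enzyme inhibition assay with PGH2 supplied as substrate; in other assays of this panel Not Active means under 50% inhibition at 10 µM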
T1 sequence (P24557 whole entry): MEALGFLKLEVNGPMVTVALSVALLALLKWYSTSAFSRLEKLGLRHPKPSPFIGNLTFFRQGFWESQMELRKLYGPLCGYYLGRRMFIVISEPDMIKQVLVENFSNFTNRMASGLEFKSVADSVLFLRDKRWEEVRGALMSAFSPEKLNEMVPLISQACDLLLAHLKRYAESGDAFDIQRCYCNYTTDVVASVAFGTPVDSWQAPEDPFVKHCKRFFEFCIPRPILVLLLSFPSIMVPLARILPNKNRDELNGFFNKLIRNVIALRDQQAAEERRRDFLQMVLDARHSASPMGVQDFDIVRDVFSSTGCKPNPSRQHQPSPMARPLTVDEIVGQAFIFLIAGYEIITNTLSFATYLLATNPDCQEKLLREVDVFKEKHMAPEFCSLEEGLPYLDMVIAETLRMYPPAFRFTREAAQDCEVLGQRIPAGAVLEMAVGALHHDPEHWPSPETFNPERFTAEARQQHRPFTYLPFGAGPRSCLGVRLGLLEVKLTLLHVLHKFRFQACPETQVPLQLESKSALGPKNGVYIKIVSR

[3] = target: Sodium-dependent noradrenaline transporter (Homo sapiens, UniProt P23975); test: DRUGMATRIX: Norepinephrine Transporter radioligand binding (ligand: [125I] RTI-55); type: cell membranes, MDCK, Membrane; conditions: mdck; Not Active = under 50% inhibition at 10 µM
[4] = target: T2, Nitric oxide synthase, inducible (Mus musculus, UniProt P29477); design: species or system Escherichia coli;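 note: inhibition of iNOS enzyme activity measured with L-arginine as substrate; in other assays of this panel Not Active means under 50% inhibition at 10 µM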
T2 sequence (P29477 whole entry): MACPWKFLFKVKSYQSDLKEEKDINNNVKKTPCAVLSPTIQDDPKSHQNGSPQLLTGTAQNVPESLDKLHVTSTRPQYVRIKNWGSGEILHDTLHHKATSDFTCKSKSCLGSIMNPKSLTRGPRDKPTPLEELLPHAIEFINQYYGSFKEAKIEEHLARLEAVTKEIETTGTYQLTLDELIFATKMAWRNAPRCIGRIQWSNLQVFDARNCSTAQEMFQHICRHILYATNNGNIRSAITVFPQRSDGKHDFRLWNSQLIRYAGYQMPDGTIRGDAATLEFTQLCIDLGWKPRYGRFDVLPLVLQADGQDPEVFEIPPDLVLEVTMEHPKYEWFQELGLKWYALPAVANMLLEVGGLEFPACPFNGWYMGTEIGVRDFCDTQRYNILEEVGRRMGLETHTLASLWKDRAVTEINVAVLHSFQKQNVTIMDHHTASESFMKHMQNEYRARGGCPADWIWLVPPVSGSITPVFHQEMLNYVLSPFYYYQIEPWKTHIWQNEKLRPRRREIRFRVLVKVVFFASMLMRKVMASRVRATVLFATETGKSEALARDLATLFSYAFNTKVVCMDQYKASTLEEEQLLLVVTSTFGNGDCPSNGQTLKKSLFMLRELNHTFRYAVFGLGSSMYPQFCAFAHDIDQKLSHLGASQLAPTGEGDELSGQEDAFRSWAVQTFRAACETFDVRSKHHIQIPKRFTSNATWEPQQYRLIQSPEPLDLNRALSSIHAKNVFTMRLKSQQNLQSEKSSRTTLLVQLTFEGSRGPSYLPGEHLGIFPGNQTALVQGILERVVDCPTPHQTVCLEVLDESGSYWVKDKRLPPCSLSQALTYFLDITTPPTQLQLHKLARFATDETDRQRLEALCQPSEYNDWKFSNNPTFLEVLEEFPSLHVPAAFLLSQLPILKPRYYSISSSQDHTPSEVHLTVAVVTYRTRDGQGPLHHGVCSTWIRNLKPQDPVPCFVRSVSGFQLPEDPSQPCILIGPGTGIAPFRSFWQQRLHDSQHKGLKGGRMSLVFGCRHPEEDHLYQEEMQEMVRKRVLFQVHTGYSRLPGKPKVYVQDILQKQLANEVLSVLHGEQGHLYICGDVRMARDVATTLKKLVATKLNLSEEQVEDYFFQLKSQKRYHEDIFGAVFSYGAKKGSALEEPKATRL

[5] = target: Tyrosine-protein kinase Lck (Homo sapiens, UniProt P06239); test: DRUGMATRIX: Protein Tyrosine Kinase, LCK enzyme inhibition (substrate: Poly(Glu:Tyr)); type: cell-based, Insect cells; conditions: insect cells; Not Active = under 50% inhibition at 10 µM
Chain of Tyrosine-protein kinase Lck (P06239 whole entry): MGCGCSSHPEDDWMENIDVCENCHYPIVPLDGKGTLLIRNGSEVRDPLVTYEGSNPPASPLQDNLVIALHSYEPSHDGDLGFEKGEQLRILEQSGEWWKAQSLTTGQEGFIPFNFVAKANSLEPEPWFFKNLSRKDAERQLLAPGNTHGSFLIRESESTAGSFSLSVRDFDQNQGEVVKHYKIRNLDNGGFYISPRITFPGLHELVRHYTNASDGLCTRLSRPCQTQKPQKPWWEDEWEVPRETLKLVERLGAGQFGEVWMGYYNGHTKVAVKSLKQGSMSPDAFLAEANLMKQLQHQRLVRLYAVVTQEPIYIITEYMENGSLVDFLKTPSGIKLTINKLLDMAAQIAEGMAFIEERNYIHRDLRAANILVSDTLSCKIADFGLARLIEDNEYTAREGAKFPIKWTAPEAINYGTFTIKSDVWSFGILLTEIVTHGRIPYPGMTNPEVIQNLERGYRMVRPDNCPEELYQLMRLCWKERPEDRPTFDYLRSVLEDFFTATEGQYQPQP

Chain of Sodium-dependent noradrenaline transporter (P23975 whole entry): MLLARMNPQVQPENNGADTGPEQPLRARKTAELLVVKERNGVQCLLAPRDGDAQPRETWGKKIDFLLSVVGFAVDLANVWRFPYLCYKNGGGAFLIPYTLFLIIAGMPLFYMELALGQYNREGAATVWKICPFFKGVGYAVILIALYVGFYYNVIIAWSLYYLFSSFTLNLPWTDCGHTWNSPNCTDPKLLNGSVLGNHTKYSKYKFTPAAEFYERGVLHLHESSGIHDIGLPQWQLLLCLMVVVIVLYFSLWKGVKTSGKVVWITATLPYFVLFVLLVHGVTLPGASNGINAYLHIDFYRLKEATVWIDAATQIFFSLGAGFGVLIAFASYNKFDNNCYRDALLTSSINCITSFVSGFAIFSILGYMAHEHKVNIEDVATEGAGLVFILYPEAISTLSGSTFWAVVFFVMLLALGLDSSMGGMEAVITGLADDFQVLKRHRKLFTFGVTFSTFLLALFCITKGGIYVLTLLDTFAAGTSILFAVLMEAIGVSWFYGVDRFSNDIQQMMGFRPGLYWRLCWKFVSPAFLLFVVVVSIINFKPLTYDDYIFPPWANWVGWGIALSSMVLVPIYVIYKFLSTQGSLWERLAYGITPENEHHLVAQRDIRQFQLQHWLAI
Chain of 5-hydroxytryptamine receptor 2B (P41595 whole entry): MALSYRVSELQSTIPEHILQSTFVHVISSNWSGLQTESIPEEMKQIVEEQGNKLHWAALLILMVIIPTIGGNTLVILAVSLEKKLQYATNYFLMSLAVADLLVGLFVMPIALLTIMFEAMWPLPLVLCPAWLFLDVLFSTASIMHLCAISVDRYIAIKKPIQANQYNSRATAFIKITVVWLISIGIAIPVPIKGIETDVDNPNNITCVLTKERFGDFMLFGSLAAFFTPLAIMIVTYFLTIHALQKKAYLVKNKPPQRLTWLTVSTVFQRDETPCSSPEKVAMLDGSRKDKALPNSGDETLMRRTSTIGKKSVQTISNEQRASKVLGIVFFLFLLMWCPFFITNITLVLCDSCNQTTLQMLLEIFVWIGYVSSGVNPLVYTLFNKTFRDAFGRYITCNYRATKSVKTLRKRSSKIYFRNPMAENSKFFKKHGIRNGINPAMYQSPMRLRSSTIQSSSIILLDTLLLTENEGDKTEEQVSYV

c1ccc2c(c1)c1cccc3ccc4cccc2c4c31 [BENZO[E]PYRENE]
Not Active: IC50 ([1]; cho-k1) | IC50 [2] | Ki [2] | IC50 (Thromboxane-A synthase) | IC50 [3] | IC50 [4] | IC50 [5]

CC(C)[C@@]1(NC(=O)[C@@H]2C[C@@H]3c4cccc5[nH]cc(c45)C[C@H]3N(C)C2)O[C@@]2(O)[C@@H]3CCCN3C(=O)[C@H](Cc3ccccc3)N2C1=O.CS(=O)(=O)O [DIHYDROERGOCRISTINE MESYLATE]
Not Active: IC50 [2] | Ki [2] | IC50 (Thromboxane-A synthase) | IC50 [3] | IC50 [4] | IC50 [5]
6.6 nM: IC50 ([1]; read-out: IC50)
4.2 nM: Ki ([1]; read-out: Ki)

CC[C@@]1(O)C[C@H](O[C@H]2C[C@H](N(C)C)[C@H](O[C@H]3C[C@H](O)[C@H](O[C@H]4CCC(=O)[C@H](C)O4)[C@H](C)O3)[C@H](C)O2)c2c(cc3c(c2O)C(=O)c2c(O)cccc2C3=O)[C@H]1C(=O)OC [ACLARUBICIN]
704 nM: Ki ([1]; read-out: Ki)
Not Active: IC50 [2] | Ki [2] | IC50 (Thromboxane-A synthase) | IC50 [3] | IC50 [4] | IC50 [5]
1110 nM: IC50 ([1]; read-out: IC50)

CCn1cc(C(=O)O)c(=O)c2cc(F)c(N3CCNCC3)cc21 [NORFLOXACIN]
Not Active: IC50 ([1]; cho-k1) | IC50 [2] | Ki [2] | IC50 (Thromboxane-A synthase) | IC50 [3] | IC50 [4] | IC50 [5]

Cc1c(O)c(=O)ccn1C [DEFERIPRONE]
Not Active: IC50 ([1]; cho-k1) | IC50 [2] | Ki [2] | IC50 (Thromboxane-A synthase) | IC50 [3] | IC50 [4] | IC50 [5]

NC1=NC(=O)C(c2ccccc2)O1 (stereo not given) [PEMOLINE]
Not Active: IC50 ([1]; cho-k1) | IC50 [2] | Ki [2] | IC50 (Thromboxane-A synthase) | IC50 [3] | IC50 [4] | IC50 [5]

Sc1ncnc2nc[nH]c12 [MERCAPTOPURINE ANHYDROUS]
Not Active: IC50 ([1]; cho-k1) | IC50 [2] | Ki [2] | IC50 (Thromboxane-A synthase) | IC50 [3] | IC50 [4] | IC50 [5]

COCCc1ccc(OCC(O)CNC(C)C)cc1 (stereo not given) [METOPROLOL]
Not Active: IC50 ([1]; cho-k1) | IC50 [2] | Ki [2] | IC50 (Thromboxane-A synthase) | IC50 [3] | IC50 [4] | IC50 [5]

O=c1[nH]c(=O)n([C@H]2C[C@H](O)[C@@H](CO)O2)cc1I [IDOXURIDINE]
Not Active: IC50 ([1]; cho-k1) | IC50 [2] | Ki [2] | IC50 (Thromboxane-A synthase) | IC50 [3] | IC50 [4] | IC50 [5]

CNNCc1ccc(C(=O)NC(C)C)cc1 [PROCARBAZINE]
Not Active: IC50 ([1]; cho-k1) | IC50 [2] | Ki [2] | IC50 (Thromboxane-A synthase) | IC50 [3] | IC50 [4] | IC50 [5]

CC(C)C(=O)Nc1ccc([N+](=O)[O-])c(C(F)(F)F)c1 [FLUTAMIDE]
Not Active: IC50 ([1]; cho-k1) | IC50 [2] | Ki [2] | IC50 (Thromboxane-A synthase) | IC50 [3] | IC50 [4] | IC50 [5]

LEAD (II) ACETATE
Not Active: IC50 ([1]; cho-k1) | Ki ([1]; cho-k1) | IC50 [2] | Ki [2] | IC50 (Thromboxane-A synthase) | Ki (Thromboxane-A synthase) | IC50 [3] | Ki [3] | IC50 [4] | Ki [4] | IC50 [5] | Ki [5]

C[C@H]1c2cccc(O)c2C(=O)C2=C(O)[C@]3(O)C(=O)C(C(N)=O)=C(O)[C@@H](N(C)C)[C@@H]3[C@@H](O)[C@@H]21.O [DOXYCYCLINE]
Not Active: IC50 ([1]; cho-k1) | IC50 [2] | Ki [2] | IC50 (Thromboxane-A synthase) | IC50 [3] | IC50 [4] | IC50 [5]

COc1ccc(C[C@H]2NC[C@H](O)[C@H]2OC(C)=O)cc1 [ANISOMYCIN]
Not Active: IC50 ([1]; cho-k1) | Ki ([1]; cho-k1) | IC50 [2] | Ki [2] | IC50 (Thromboxane-A synthase) | Ki (Thromboxane-A synthase) | IC50 [3] | Ki [3] | IC50 [4] | Ki [4] | IC50 [5] | Ki [5]
